Laboratory results: BindingDB's records for doi:10.1016/j.bmcl.2012.10.040 (Pfizer, 2013)
pIC50: −log10 of the molar value.

Key:
[1] = target: T1, Prostaglandin G/H synthase 2 (Canis lupus familiaris, UniProt Q8SPQ9); assay: Inhibition of COX2 in dog whole blood assessed as LPS-induced PGE2 production
T1 sequence (Q8SPQ9 whole entry): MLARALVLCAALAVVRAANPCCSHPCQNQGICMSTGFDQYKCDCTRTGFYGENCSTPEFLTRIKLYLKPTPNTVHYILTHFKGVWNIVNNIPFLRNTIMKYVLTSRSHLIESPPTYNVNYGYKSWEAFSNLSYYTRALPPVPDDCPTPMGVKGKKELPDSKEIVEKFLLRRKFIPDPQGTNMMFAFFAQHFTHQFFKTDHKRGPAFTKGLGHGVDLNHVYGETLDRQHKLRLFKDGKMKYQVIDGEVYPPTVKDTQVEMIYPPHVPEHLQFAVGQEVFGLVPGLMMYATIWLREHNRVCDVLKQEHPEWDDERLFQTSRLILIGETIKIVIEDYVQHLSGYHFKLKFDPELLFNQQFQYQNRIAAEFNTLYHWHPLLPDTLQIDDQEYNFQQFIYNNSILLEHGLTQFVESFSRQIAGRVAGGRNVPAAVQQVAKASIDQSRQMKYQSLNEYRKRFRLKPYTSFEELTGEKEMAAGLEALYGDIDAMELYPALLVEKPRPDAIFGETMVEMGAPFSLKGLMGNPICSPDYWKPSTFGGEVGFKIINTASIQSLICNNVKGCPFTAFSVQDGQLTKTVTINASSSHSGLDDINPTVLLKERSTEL

[2] = target: T2, Prostaglandin G/H synthase 2 (Homo sapiens, UniProt P35354); assay: Inhibition of COX2 in human whole blood assessed as LPS-induced PGE2 production incubated 15 mins prior to LPS challenge measured after 24 hrs by EIA
T2 sequence (P35354 whole entry): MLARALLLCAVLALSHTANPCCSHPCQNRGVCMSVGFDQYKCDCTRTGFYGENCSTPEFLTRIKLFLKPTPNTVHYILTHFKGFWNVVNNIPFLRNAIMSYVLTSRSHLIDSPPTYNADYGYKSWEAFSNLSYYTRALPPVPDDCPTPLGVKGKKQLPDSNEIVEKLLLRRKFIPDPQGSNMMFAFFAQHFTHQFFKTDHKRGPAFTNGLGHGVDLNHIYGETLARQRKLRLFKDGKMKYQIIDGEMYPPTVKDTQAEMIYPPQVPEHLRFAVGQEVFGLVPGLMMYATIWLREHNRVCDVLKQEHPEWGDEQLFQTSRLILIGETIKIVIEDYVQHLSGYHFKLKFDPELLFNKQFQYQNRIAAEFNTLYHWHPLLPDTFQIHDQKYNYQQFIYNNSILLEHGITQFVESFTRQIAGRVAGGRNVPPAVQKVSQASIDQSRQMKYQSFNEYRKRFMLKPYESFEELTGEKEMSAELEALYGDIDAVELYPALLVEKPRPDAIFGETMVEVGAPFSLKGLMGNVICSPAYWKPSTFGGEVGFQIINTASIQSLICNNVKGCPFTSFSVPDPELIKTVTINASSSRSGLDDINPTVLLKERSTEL

[3] = target: T3, Prostaglandin G/H synthase 2 (Rattus norvegicus, UniProt P35355); assay: Inhibition of COX2 in rat synovial fibroblast assessed as inhibition of IL-1-mediated PGE2 production
T3 sequence (P35355 whole entry): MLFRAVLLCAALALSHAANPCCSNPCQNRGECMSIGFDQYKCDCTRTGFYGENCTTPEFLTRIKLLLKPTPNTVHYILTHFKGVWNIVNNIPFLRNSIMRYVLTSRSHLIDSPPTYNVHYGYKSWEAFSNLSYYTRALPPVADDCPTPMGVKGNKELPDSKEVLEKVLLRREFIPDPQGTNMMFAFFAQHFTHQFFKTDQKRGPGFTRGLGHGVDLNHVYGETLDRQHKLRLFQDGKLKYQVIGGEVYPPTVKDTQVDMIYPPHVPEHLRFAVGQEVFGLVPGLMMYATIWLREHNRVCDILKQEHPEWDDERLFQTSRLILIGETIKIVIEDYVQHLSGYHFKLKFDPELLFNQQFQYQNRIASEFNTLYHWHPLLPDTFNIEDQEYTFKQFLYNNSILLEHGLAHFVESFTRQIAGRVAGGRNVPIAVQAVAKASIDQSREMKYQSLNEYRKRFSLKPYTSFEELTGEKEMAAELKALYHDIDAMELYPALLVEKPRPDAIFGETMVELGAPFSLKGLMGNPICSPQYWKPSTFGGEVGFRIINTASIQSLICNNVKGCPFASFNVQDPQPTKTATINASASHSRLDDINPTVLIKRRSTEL

[4] = target: T2, Prostaglandin G/H synthase 2; assay: Inhibition of COX2 in human whole blood assessed as PGE2 level incubated for 15 mins prior to substrate addition measured after 10 mins by ELISA
[5] = target: T2, Prostaglandin G/H synthase 2; assay: Inhibition of COX2 in human fetal fibroblast assessed as inhibition of IL-1beta-mediated PGE2 production after 50 mins by ELISA

SMILES: O=C(N[C@H]1CCC[C@@H]1OCc1ccccc1)C1CCN(c2nc3cc(Cl)ccc3o2)CC1
- pIC50 [1]: 5.91
- pIC50 [2]: 6.03
- pIC50 [3]: < 4.52
- pIC50 [4]: 5.12
- pIC50 [5]: 7.46

SMILES: O=C(NC1CCCC1)C1CCN(c2nc3cc(Cl)ccc3o2)CC1
- pIC50 [5]: 6.00

SMILES: O=C(N[C@@H]1CCC[C@H]1OCc1ccccc1)C1CCN(c2nc3cc(Cl)ccc3o2)CC1
- pIC50 [4]: 4.56
- pIC50 [5]: 6.53

SMILES: O=C(N[C@H]1CCC[C@H]1OCc1ccccc1)C1CCN(c2nc3cc(Cl)ccc3o2)CC1
- pIC50 [4]: 4.12
- pIC50 [5]: 6.21

SMILES: O=C(N[C@H]1CCC[C@@H]1COc1ccccc1)C1CCN(c2nc3cc(Cl)ccc3o2)CC1
- pIC50 [4]: < 4.47
- pIC50 [5]: 7.07

SMILES: O=C(N[C@H]1CC[C@@H](CO)CC1)C1CCN(c2nc3cc(Cl)ccc3o2)CC1
- pIC50 [4]: 4.95
- pIC50 [5]: 5.90

SMILES: O=C(N[C@H]1CC[C@H](CO)CC1)C1CCN(c2nc3cc(Cl)ccc3o2)CC1
- pIC50 [5]: < 5.00
